These results are taken from US7585895B2, “Therapeutic substituted cyclopentanes” (Allergan, Inc., priority 2005, dated 2009).

Broadly, the EC50 is the concentration needed to bring the measured effect to its halfway point.

Type in all cases: cell-based
One test deals with T1, hEP4/Gqs5 (Homo sapiens, UniProt P35408).
T1 construct: expressed in transfected cells
Put plainly: FLIPR calcium signal, EP4. The conditions noted are these: HEK-293(EBNA). The procedure, abridged: (§1)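 Stably transfected HEK-293(EBNA) cells loaded with 2 μM Fluo-4 AM in HBSS-HEPES pH 7.4, 37° C; peak fluorescence rise after compound addition (FLIPR, 488 nm excitation) expressed relative to buffer and standard agonist controls (PGE2 for EP subtypes, U-46619 for TP). Tested 10^−5 to 10^−11 M, duplicates, n≧3.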

Another test deals with T2, hEP2/Gqs5 (Homo sapiens, UniProt P43116).
T2 construct: expressed in transfected cells
T2 sequence (P43116 whole entry): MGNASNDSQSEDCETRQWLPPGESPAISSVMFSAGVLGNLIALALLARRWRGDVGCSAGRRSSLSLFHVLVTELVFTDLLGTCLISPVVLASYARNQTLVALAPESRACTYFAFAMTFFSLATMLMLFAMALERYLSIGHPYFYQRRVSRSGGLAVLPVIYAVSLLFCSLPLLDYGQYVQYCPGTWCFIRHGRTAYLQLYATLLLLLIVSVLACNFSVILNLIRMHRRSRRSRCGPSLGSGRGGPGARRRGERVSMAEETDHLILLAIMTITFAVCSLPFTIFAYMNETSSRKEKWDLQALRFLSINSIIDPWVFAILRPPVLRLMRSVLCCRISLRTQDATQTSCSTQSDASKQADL
As to the kind of experiment: FLIPR calcium signal, EP2. The conditions noted are these: HEK-293(EBNA), value outside parentheses, read-out: Ca2+ Signal-EC50 (nM) EP2. The procedure, abridged:
as §1

The target in the next test is EP2 (Homo sapiens, UniProt P43116). Put plainly: cAMP assay, HEK-EBNA cells expressing EP2. On the set-up: expressed in transfected cells; host or cells: HEK-EBNA. The conditions noted are these: value in parentheses in EP2 column, read-out: EP2 EC50 (nM), measurement of cAMP (data in parentheses). The procedure, abridged:
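HEK-EBNA cells expressing EP2 (10^4 cells per well) were stimulated for 30 min at room temperature with compound in HBSS containing 0.1% BSA, 0.5 mM IBMX and 5 mM HEPES, pH 7.4. Compounds ran in 16-point serial dilutions in triplicate. cAMP was detected by AlphaScreen competition between anti-cAMP acceptor beads and biotin-cAMP/streptavidin donor beads.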
In general terms: cAMP levels reflect the balance of adenylyl cyclase and phosphodiesterase activity.

The next test addresses T3, hEP3A/Gqi5 (Homo sapiens, UniProt P43115).
T3 construct: expressed in transfected cells
T3 sequence (P43115 1-390): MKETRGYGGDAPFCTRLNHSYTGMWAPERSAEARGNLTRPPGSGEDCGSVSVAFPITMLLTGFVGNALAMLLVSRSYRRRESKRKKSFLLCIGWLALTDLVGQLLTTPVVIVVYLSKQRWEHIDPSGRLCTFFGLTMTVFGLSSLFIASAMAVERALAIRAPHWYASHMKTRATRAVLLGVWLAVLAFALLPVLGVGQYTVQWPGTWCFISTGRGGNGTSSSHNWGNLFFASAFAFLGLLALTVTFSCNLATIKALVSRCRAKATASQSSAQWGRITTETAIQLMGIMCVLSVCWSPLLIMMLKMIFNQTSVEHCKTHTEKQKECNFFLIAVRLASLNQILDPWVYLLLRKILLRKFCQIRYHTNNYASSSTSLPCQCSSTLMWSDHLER
Put plainly: FLIPR calcium signal, EP3. The conditions noted are these: HEK-293(EBNA); for EC50: read-out: Ca2+ Signal-EC50 (nM) EP3. The procedure, abridged:
as §1

A further test addresses T4, hTP (Homo sapiens, UniProt P21731).
T4 construct: expressed in transfected cells
T4 sequence (P21731 1-343): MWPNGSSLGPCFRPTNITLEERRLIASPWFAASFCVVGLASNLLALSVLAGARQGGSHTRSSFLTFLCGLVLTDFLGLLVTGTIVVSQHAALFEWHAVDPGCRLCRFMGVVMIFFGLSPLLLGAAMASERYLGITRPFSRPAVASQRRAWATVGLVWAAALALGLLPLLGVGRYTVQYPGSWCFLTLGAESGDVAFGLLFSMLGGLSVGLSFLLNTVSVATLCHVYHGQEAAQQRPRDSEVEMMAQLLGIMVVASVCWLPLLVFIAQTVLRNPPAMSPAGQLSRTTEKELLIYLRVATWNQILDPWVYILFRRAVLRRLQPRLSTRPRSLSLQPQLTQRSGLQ
Put plainly: FLIPR calcium signal, TP. The conditions noted are these: HEK-293(EBNA); for EC50: read-out: Ca2+ Signal-EC50 (nM) TP. In short, it runs like this: as §1

The next test has as its target T5, hEP1 (Homo sapiens, UniProt P34995).
T5 construct: expressed in transfected cells
T5 sequence (P34995 1-402): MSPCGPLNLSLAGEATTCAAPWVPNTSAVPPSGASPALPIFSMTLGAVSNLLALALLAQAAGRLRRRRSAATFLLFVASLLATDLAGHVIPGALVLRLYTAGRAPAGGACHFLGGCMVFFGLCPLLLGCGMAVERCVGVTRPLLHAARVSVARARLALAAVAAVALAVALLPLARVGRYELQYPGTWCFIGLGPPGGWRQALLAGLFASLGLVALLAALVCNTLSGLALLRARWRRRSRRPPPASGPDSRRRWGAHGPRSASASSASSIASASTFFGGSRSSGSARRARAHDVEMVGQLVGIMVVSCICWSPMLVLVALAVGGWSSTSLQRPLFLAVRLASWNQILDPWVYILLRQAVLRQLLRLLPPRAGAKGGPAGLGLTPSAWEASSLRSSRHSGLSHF
As to the kind of experiment: FLIPR calcium signal, EP1. The conditions noted are these: HEK-293(EBNA). The procedure, abridged:
as §1

Each structure is given as a SMILES string.

T1 sequence (P35408 whole entry): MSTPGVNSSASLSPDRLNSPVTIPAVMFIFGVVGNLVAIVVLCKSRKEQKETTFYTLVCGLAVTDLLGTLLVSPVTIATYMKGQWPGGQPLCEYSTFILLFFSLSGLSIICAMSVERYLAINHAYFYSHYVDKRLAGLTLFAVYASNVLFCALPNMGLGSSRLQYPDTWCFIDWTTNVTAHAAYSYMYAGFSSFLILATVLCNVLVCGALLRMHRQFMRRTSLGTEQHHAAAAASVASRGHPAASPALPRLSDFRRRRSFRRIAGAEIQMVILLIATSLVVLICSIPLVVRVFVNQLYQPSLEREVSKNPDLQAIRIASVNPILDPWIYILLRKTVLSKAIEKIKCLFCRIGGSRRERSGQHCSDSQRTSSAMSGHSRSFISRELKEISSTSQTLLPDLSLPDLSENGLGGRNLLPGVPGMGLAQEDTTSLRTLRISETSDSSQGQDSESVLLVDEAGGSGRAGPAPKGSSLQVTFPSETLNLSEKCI
EP2, sequence (P43116 whole entry): as the sequence (P43116 whole entry) above

Regarding `CCCCC(O)c1cccc([C@@H]2[C@@H](C/C=C\CCCC(=O)O)[C@H](Cl)C[C@H]2O)c1` (stereo partly drawn) [Entry 30, (Z)-7-{(1R,2S,3R,5R)-5-Chloro-3-hydroxy-2-[3-(1-hydroxy-pentyl)-phenyl]-cyclopentyl}-hept-5-enoic acid], the “Ca2+ Signal-EC50 (nM) EP4” value at hEP4/Gqs5 was “not active”. Besides, the EC50 on hEP2/Gqs5 is 68 nM; on EP2, 10 nM; on hEP3A/Gqi5, 23 nM; at hTP, 3750 nM. Also, at hEP1, the “Ca2+ Signal-EC50 (nM) EP1” value is “not active”.
On to `CCCCCC(O)C(C)(C)c1ccc([C@@H]2[C@@H](C/C=C\CCCC(=O)O)[C@H](Cl)C[C@H]2O)cc1` (stereo partly drawn) [Entry 31, (Z)-7-{(1R,2S,3R,5R)-5-Chloro-3-hydroxy-2-[4-(2-hydroxy-1,1-dimethyl-heptyl)-phenyl]-cyclopentyl}-hept-5-enoic acid], for which the “Ca2+ Signal-EC50 (nM) EP4” value at hEP4/Gqs5 is on record as “not active”. Further, the EC50 on hEP2/Gqs5 came out at 544 nM; on EP2 it was 19 nM; at hEP3A/Gqi5, 1300 nM. Also, at hTP, the “Ca2+ Signal-EC50 (nM) TP” value is listed as “not active”. Moreover, the “Ca2+ Signal-EC50 (nM) EP1” value on hEP1 is recorded as “not active”.
On to `CCCCCCc1ccc([C@@H]2[C@@H](C/C=C\CCCC(=O)O)[C@H](Cl)C[C@H]2O)cc1` [Entry 33, (Z)-7-[(1R,2S,3R,5R)-5-Chloro-2-(4-hexyl-phenyl)-3-hydroxy-cyclopentyl]-hept-5-enoic acid], for which the EC50 on hEP4/Gqs5 (read-out: Ca2+ Signal-EC50 (nM) EP4) was greater than 10000 nM; on hEP2/Gqs5, 26 nM; on EP2 it was 27 nM. For the same compound, on hEP3A/Gqi5, the “Ca2+ Signal-EC50 (nM) EP3” value is “not active”. In addition, the “Ca2+ Signal-EC50 (nM) TP” value on hTP is given as “not active”. Also, the “Ca2+ Signal-EC50 (nM) EP1” value at hEP1 is “not active”.
For `CCCCCC(O)c1ccc([C@@H]2[C@@H](C/C=C\CCCC(=O)O)[C@H](Cl)C[C@@H]2O)cc1` (stereo partly drawn) [Entry 34, (Z)-7-{(1R,2S,3S,5R)-5-Chloro-3-hydroxy-2-[4-(1-hydroxy-hexyl)-phenyl]-cyclopentyl}-hept-5-enoic acid], the “Ca2+ Signal-EC50 (nM) EP4” value at hEP4/Gqs5 is “not active”. The EC50 is 16 nM on hEP2/Gqs5, 5 nM on EP2, 25 nM at hEP3A/Gqi5 and 6930 nM at hTP. In addition, the “Ca2+ Signal-EC50 (nM) EP1” value at hEP1 is on record as “not active”.
